Tests used:
human A2a receptor = human A2a receptor (Homo sapiens, UniProt P29274); assay: Adenosine antagonistic activity, radioligand binding, A2a receptor; details: [3H]CGS 21680 20 nM
Description: (§1) Test 1: Adenosine Antagonistic Activity
(§2) The adenosine antagonistic activity [Ki(nM)] of the test compound was examined by radioligand binding techniques using 8-cyclopentyl-1,3-dipropylxanthine, [dipropyl-2,3-^3H(N)] ([^3H]DPCPX, 4.5 nM) for human A1 receptor and [^3H]CGS 21680 (20 nM) for human A2a receptor.

ddY mice = assay: Anticatalepsy activity in mouse (haloperidol-induced catalepsy); type: in vivo; details: 3.2 mg/kg orally, ddY mice n=7; haloperidol 0.32 mg/kg i.p. 30 min after compound; measured 30 min after injection, bar test up to 30 sec
Description: Test 2: Anticatalepsy Activity in Mouse
The test compound (3.2 mg/kg) was administered orally with ddY mice (n=7). Then, haloperidol (0.32 mg/kg) was injected intraperitoneally 30 min. after the administration of the compound. Thirty min. after the injection, the cataleptic responses of mice were measured. The forelimbs of each mouse were placed on a 3 cm high, 3 mm wide horizontal bar, and the duration of cataleptic posture was measured for up to 30 sec.

human A1 receptor = target: T1, human A1 receptor (Homo sapiens, UniProt P30542); assay: Adenosine antagonistic activity, radioligand binding, A1 receptor; details: [3H]DPCPX 4.5 nM
T1 sequence (P30542 1-326): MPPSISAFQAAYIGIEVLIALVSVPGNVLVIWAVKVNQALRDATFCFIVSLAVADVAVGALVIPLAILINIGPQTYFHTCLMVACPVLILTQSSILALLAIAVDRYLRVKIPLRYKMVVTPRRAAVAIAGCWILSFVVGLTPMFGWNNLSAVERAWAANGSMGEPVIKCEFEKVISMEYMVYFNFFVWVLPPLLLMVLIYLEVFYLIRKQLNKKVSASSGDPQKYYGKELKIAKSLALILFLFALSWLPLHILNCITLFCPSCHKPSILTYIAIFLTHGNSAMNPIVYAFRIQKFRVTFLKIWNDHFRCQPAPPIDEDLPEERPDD
Description: as §1, §2

Sequence of human A2a receptor (P29274 whole entry): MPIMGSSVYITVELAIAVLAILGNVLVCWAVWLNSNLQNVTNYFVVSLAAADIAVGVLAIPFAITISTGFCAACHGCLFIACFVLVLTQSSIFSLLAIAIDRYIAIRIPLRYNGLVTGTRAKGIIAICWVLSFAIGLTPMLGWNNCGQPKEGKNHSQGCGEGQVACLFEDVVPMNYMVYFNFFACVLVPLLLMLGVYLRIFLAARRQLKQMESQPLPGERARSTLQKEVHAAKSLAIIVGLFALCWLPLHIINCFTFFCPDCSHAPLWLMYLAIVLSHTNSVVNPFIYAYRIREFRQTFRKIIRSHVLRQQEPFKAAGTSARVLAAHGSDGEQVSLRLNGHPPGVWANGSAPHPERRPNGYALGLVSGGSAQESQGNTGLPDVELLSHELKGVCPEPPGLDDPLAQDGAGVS

SMILES | Ki (human A2a receptor) | melting point | Ki (human A1 receptor) | Manifestation rate of catalepsy (number of mouse) (ddY mice)
COc1ccn2nc(-c3ccccc3)c(-c3ccc(=O)n(C(C)C)n3)c2c1 [Example 2, 5-Methoxy-3-(3-oxo-2-isopropyl-2,3-dihydropyridazin-6-yl)-2-phenylpyrazolo[1,5-a]pyridine] | 1.38 nM | 180.5 to 181.5 °C | 0.15 nM | 0/7
CC(C)n1nc(-c2c(-c3ccccc3)nn3ccc(OCCN(C)C)cc23)ccc1=O [Example 4, 5-(2-Dimethylamino)ethoxy-3-(3-oxo-2-isopropyl-2,3-dihydropyridazin-6-yl)-2-phenylpyrazolo[1,5-a]pyridine] | 2.35 nM | 138 to 139 °C | 0.98 nM | 0/7
CC(C)n1nc(-c2c(-c3ccccc3)nn3ccc(Oc4ccccn4)cc23)ccc1=O [Example 31, 5-(2-pyridinyloxy)-3-(3-oxo-2-isopropyl-2,3-dihydropyridazin-6-yl)-2-phenylpyrazolo[1,5-a]pyridine] | 1.44 nM | 140.5 to 141.5 °C | 0.42 nM | 0/7
CC(C)n1nc(-c2c(-c3ccccc3)nn3ccc(C(=O)N(C)C)cc23)ccc1=O [Example 72, N,N-dimethyl-3-(3-oxo-2-isopropyl-2,3-dihydropyridazin-6-yl)-2-phenylpyrazolo[1,5-a]pyridine-5-carboxamide] | 1.68 nM | – | 0.25 nM | 0/7
CC(C)n1nc(-c2c(-c3ccccc3)nn3cccc(OCCN(C)C)c23)ccc1=O [Example 198, 4-(2-(Dimethylamino)ethoxy)-3-(3-oxo-2-isopropyl-2,3-dihydropyridazin-6-yl)-2-phenylpyrazolo[1,5-a]pyridine] | – | 137 to 138 °C | – | –

Further lines, with some results ahead:

Ki (human A2a receptor) | melting point | Ki (human A1 receptor) | SMILES | Manifestation rate of catalepsy (number of mouse) (ddY mice)
1.05 nM | > 250 °C | 0.14 nM | CC(C)n1nc(-c2c(-c3ccccc3)nn3ccc(O)cc23)ccc1=O [Example 3, 5-Hydroxy-3-(3-oxo-2-isopropyl-2,3-dihydropyridazin-6-yl)-2-phenylpyrazolo[1,5-a]pyridine] | –
1.28 nM | 170 to 171 °C | 0.24 nM | CC(C)n1nc(-c2c(-c3ccccc3)nn3ccc(N4CCN(C)CC4)cc23)ccc1=O [Example 96, 5-(4-methyl-1-piperazinyl)-3-(3-oxo-2-isopropyl-2,3-dihydropyridazin-6-yl)-2-phenylpyrazolo[1,5-a]pyridine] | 0/7
1.03 nM | 208 to 210 °C | 0.48 nM | CC(C)n1nc(-c2c(-c3ccccc3)nn3ccc(NC(=O)OC(C)(C)C)cc23)ccc1=O [Example 145, tert-butyl 3-(3-oxo-2-isopropyl-2,3-dihydropyridazin-6-yl)-2-phenylpyrazolo[1,5-a]pyridin-5-ylcarbamate] | 0/7

From patent US20040110763A1, “Pyrazolopyridine compound and pharmaceutical use thereof” (priority 2000, published 2004)
